Results from article PMC10050199 (Sensors and Actuators. B, Chemical, 2023).

Assays:
SARS-CoV-2 S1 = format: binding
SARS-CoV-2 SP [1] = molecular target: T1, SARS-CoV-2 SP (Severe acute respiratory syndrome coronavirus 2, UniProt P0DTC2)
SARS-CoV-2 SP [2] = molecular target: T1, SARS-CoV-2 SP; remark: listed apart in the source

Sequence | binding to SARS-CoV-2 S1 (SARS-CoV-2 S1) | binding to SARS-CoV-2 SP (absorbance) (SARS-CoV-2 SP [1]) | frequency of peptide sequence among sequenced phage monoclonals (SARS-CoV-2 SP [2])
WNLDLSQWLPPM [P1-phage] | may also bind to SARS-CoV-2 S1 loosely | higher absorbance value and was significantly higher than that of the control | 
WNLDLSQWLPPM [P1] |  |  | 16/30
